According to US4798898A, “Antitussive and mucus regulating 2-substituted thiazolidines” (Boehringer Biochemia Robin S.p.A., priority 1984, dated 1989):
Read-outs that look alike come from different tables or passages of the source.

Tests used:
[1] = test system: pathological sputum of bronchitic rabbits; test: Mucus regulating properties in bronchitic rabbits (sputum AUC as % compared to bronchitic controls); assay type: in vivo, male New Zealand white rabbits; settings: for mucus regulating effectiveness compared with carboxymethylcysteine: dosage level 0.01-0.08M vs 0.153M carboxymethylcysteine; for Fucose (mg/ml), AUC as a 100% compared to bronchitic controls / Galactose (mg/ml), AUC as a 100% compared to bronchitic controls / Mucus production (ml/kg), AUC as a 100% compared to bronchitic controls / Phospholipids (mg/ml), AUC as a 100% compared to bronchitic controls / Protein (mg/ml), AUC as a 100% compared to bronchitic controls / Sialic acid (mg/ml), AUC as a 100% compared to bronchitic controls / Viscosity (cps), AUC as a 100% compared to bronchitic controls: Table 2, oral, equimolecular amounts to S-carboxymethyl cysteine; for mucus regulating activity (in words): rabbit, in vivo
Method: The animals are submitted to inhalation of a 5% H2 SO3 aqueous solution by aerosol (exposition of 3 hours a day for 3 alternate days), to induce a chronic bronchial inflammatory disease which causes a production of pathological sputum in the bronchial tree.
Aim of the experiments is to evaluate modifications of selective parameters such as dry weight of the sputum, viscosity, content in proteins, phospholipids, galactose, sialic acid and fucose, induced in this pathological sputum by pharmacological treatment with the compounds of the invention.
To this purpose, the sputum produced in the bronchial tree is collected daily, through a "T" shaped glass cannula, inserted in the trachea, before and after oral twice a day (9.00 a.m. and 4.00 p.m.) treatment with one of the compounds of the invention.
The schedule treatment procedure is shown in the following Scheme 1: [drawing 21] where 0 indicates the day of implantation of the tracheal cannula; -7-5-3 indicate the days of H2 SO3 treatment (H); 1, 2, 3, 4 indicate the days of oral administration of the compounds of the invention (T) and the time of mucus collection (M).
The mucus collected in day 1 in the morning is considered as a blank; 7 indicates the day of the animal sacrifice after the mucous collection.
The sputum samples are stored in the freezer (-20° C.) until the investigation of biological and rheological parameters is carried out.
The samples are investigated for relative viscosity, measured at 37° C. with a Brookfield viscometer (model LT VD) equipped with a 1,565° cone-plate, and aliquoted for biochemical analysis of protein, phospholipids, galactose, sialic acid and fucose contents. Dry weight of the mucus is also determined. For each parameter, cumulative data are referred to a seven days period after the beginning of the treatment and they are extrapolated using the AUC method (area under curve) calculated by the trapazoidal rule. Finally the data are compared with data obtained from controls (vehicle treatment), non bronchitic rabbits (vehicle treatment) and positive controls bronchitic rabbits treated with 0.153M […].

[2] = test system: cough induced by citric acid aerosol in guinea pigs; test: Guinea pig cough test (citric acid aerosol, Charlier procedure); assay type: in vivo; settings: for ED50 / decrease of the antitussive potency in comparison with the reference compound 3: guinea pig cough test; for ED50: i.p., 60 minutes after treatment
Method: (§1) The techniques described by Charlier et al. (Arch. Int. Pharmacodyn. 134, 306, 1961) and by Stefko et al. (J. Pharm. Exp. Therap., 108, 217, 1953), adapted with minor modifications, are used to investigate the antitussive properties of the compounds of the invention. Codeine phosphate is used as positive reference compound.
According to the Charlier procedure guinea pigs are exposed to a citric acid aerosol (7.5%) and cough is recorded 60 minutes after the antitussive treatment by i.p. route. Male animals of 300-400 g pigs are placed in perspex box (20×30×30 cm) connected to an aerosol compressor; the animals are subjected to a citric acid saturated atmosphere, 60 minutes after the i.p. injection of a compound of the invention (0.1 and 0.3M solutions; 1 ml/kg).
The total number of cough strokes and the delay of the first cough are recorded during the first five minutes.
Five guinea pigs are used for each dose level and the results are compared with controls (vehicle treatment) and codeine phosphate 0.07M solution (standard treatment).
ED50 and the corresponding delay of first cough stroke are calculated.
The data obtained by i.p. administration are confirmed by oral administration.

[3] = test system: cough induced by electric stimulation in dogs; test: Dog cough test (cough induced by electric stimulation, Stefko procedure); assay type: in vivo, conscious mongrel dogs
Method: as §1
In the Stefko procedure, conscious mongrel dogs (15±3 kg body weight) are used; the compounds of the invention are tested for their ability to inhibit cough induced by electric stimulation.
Under general anesthesia, two insulated nichrome wires (0.4 mm diameter) are surgically implanted into the submucosa of the trachea.
About two days later, the dogs are placed in a sling and the exteriorized electrodes are connected to an electric stimulating device (such as Grass S 48 Mod.).
The stimulation parameters such as: delay 0.01 msec, duration 1 msec, frequency 30 Hz, are used.
An electrical stimulus of 1 sec is applied 10 times at 5 sec intervals in order to determine the minimum voltage necessary for eliciting reproducible cough responses. Then, tussive responses to the electrical stimuli are registered at 15, 30, 60, 90, 120, 150, 180, 240, 300 and 360 minutes after oral administration of the compounds of the invention.
The tussive responses are scored as follows: 1: no response; 2: sigh or exaggerated expiration; 3: marked cough; 4: one marked cough and one exaggerated expiration: 5: two marked coughs.
Six dogs are employed for each determination and the mean activity is calculated.
The inhibition percent of the cough response and the duration of activity are compared with codeine.

[4] = Cavia porcellus, ip, 1 h, read-out: ED50

C#CCOc1ccccc1OCC1SCCN1C(=O)CCn1ccnc1 (centres unmarked) [3-(3-imidazol-1-yl)-propionyl-2-(O-propargyloxyphenoxy)methyl-thiazolidine]
mucus regulating effectiveness compared with carboxymethylcysteine [1]: at least as effective as 0.153M of 5-carboxymethylcysteine

COc1ccccc1OCC1SCCN1C(=O)CCn1ccnc1 (centres unmarked) [3-(3-imidazol-1-yl)-propionyl-2-(O-methoxyphenoxy)methylthiazolidine]
mucus regulating effectiveness compared with carboxymethylcysteine [1]: at least as effective as 0.153M of 5-carboxymethylcysteine

CC(=O)SCC(=O)N1CCSC1COc1ccccc1C (centres unmarked) [3-acetylthioacetyl-2-(o-tolyloxymethyl)thiazolidine]
fucose content in the mucus (in words) ([1]; tested as mucus regulator): increases
galactose content in the mucus (in words) ([1]; tested as mucus regulator): poorly affecting
protein content in the mucus (in words) ([1]; tested as mucus regulator): increases
sialic content in the mucus (in words) ([1]; tested as mucus regulator): poorly affecting
viscosity of the mucus (in words) ([1]; tested as mucus regulator): increases
antitussive properties (in words) [2]: devoid of any antitussive properties

CC(=O)SCC(=O)N1CCSC1COc1ccccc1O (centres unmarked) [3-acetylthio-acetyl-2-[(o-hydroxyphenoxy)methyl]thiazolidine]
Fucose (mg/ml), AUC as a 100% compared to bronchitic controls [1]: 90.8%
Galactose (mg/ml), AUC as a 100% compared to bronchitic controls [1]: 38.2%
Mucus production (ml/kg), AUC as a 100% compared to bronchitic controls [1]: 99.2%
Phospholipids (mg/ml), AUC as a 100% compared to bronchitic controls [1]: 47%
Protein (mg/ml), AUC as a 100% compared to bronchitic controls [1]: 62.0%
Sialic acid (mg/ml), AUC as a 100% compared to bronchitic controls [1]: 49.5%
Viscosity (cps), AUC as a 100% compared to bronchitic controls [1]: 31.9%
mucus regulating activity (in words) [1]: particularly favourable increase of their mucus regulating activity
ED50 [2, 4]: 60 mg/kg
decrease of the antitussive potency in comparison with the reference compound 3 [2]: ~10 times

COc1ccccc1OCC1SCCN1C(=O)CSC(=O)CN1CCN(C)CC1 (centres unmarked) [3-(4'-methylpiperazine-1-yl)acetylthioacetyl-2-(o-methoxyphenoxy)methylthiazolidine]
ED50 [2, 4]: 0.5 to 4 mg/kg

CCOC(=O)[C@@H]1CSC(COc2ccccc2OC)N1 (some centres unmarked) [4-carbethoxy-2-(o-methoxyphenoxy)methyl-thiazolidine]
ED50 [2]: inactive
duration of action ([3]; dog cough test, in words): short
% inhibition of cough stimulus ([3]; dog, oral, dose not given): 26.7%

CCOCCSCC(=O)N1CCSC1COc1ccccc1OC (centres unmarked) [3-(3-thia-6-oxa-capriloyl)-2-(O-methoxyphenoxy)methylthiazolidine]
mucus regulating effectiveness compared with carboxymethylcysteine [1]: at least as effective as 0.153M of 5-carboxymethylcysteine

3-acetylthioacetyl-2-[2'-(o-acetylthioacetoxyphenyl)ethyl]thiazolidine
Fucose (mg/ml), AUC as a 100% compared to bronchitic controls [1]: 128%
Galactose (mg/ml), AUC as a 100% compared to bronchitic controls [1]: 67%
Mucus production (ml/kg), AUC as a 100% compared to bronchitic controls [1]: 76.1%
Phospholipids (mg/ml), AUC as a 100% compared to bronchitic controls [1]: 47.2%
Protein (mg/ml), AUC as a 100% compared to bronchitic controls [1]: 48%
Sialic acid (mg/ml), AUC as a 100% compared to bronchitic controls [1]: 36.2%
Viscosity (cps), AUC as a 100% compared to bronchitic controls [1]: 70%
mucus regulating activity (in words) [1]: particularly favourable increase of their mucus regulating activity
decrease of the antitussive potency in comparison with the reference compound 3 [2]: ~10 times
ED50 [2]: 61 mg/kg

COc1ccccc1OCC1NCCS1 (centres unmarked) [2-(o-methoxyphenoxy)-methyl-thiazolidine, 2-(o-methoxyphenoxymethyl)thiazolidine]
Fucose (mg/ml), AUC as a 100% compared to bronchitic controls [1]: 76%
Galactose (mg/ml), AUC as a 100% compared to bronchitic controls [1]: 59%
Mucus production (ml/kg), AUC as a 100% compared to bronchitic controls [1]: 124%
Phospholipids (mg/ml), AUC as a 100% compared to bronchitic controls [1]: 106%
Protein (mg/ml), AUC as a 100% compared to bronchitic controls [1]: 92%
Sialic acid (mg/ml), AUC as a 100% compared to bronchitic controls [1]: 85%
Viscosity (cps), AUC as a 100% compared to bronchitic controls [1]: 116%

CCOCCOCC(=O)N1CCSC1COc1ccccc1OC (centres unmarked) [3-(3,6-dioxa-capriloyl)-2-(O-methoxyphenoxy)methyl-thiazolidine]
mucus regulating effectiveness compared with carboxymethylcysteine [1]: at least as effective as 0.153M of 5-carboxymethylcysteine
